Assay results published in patent publication US9758529B2, “Fused dihydro-4H-pyrazolo[5,1-C][1,4]oxazinyl compounds and analogs for treating CNS disorders” (Sunovion Pharmaceuticals Inc., priority 2015, dated 2017).

Tested on: mice
Test: Neuropharmacological Assay (SmartCube)
Assay type: in vivo
Details: i.p. 15 min before behavioral test; 3 doses, most efficacious dose(s) presented

SMILES | AD: ADHD (probability of class match) | AG: analgesic (probability of class match) | AX: anxiolytic (probability of class match) | CE: cognitive enhancer (probability of class match) | DP: anti-depressant (probability of class match) | HA: hallucinogen (probability of class match) | MS: mood stabilizer (probability of class match) | PS: anti-psychotic (probability of class match) | SD: sedative hypnotic (probability of class match) | UN: uncharacterized CNS activity (probability of class match) | XG: anxiogenic (probability of class match)
Cl.N[C@H](CC1CCC1)C1OCCn2nc3ccccc3c21 (stereo partly drawn) [Compound 41, (1R)-2-cyclobutyl-1-(3,4-dihydro-1H-[1,4]oxazino[4,3-b]indazol-1-yl)ethan-1-aminium] | + (LOQ≦ + <5%) | + (LOQ≦ + <5%) | + (LOQ≦ + <5%) | + (LOQ≦ + <5%) | + (LOQ≦ + <5%) | + (LOQ≦ + <5%) | + (LOQ≦ + <5%) | + (LOQ≦ + <5%) | + (LOQ≦ + <5%) | + (LOQ≦ + <5%) | + (LOQ≦ + <5%)
Cl.c1ccc2c3n(nc2c1)CCOC3[C@H]1CNCCO1 (stereo partly drawn) [Compound 42, (2R)-2-(3,4-dihydro-1H-[1,4]oxazino[4,3-b]indazol-1-yl)morpholin-4-ium chloride] | + (LOQ≦ + <5%) | + (LOQ≦ + <5%) | + (LOQ≦ + <5%) | + (LOQ≦ + <5%) | + (LOQ≦ + <5%) | + (LOQ≦ + <5%) | + (LOQ≦ + <5%) | + (LOQ≦ + <5%) | + (LOQ≦ + <5%) | + (LOQ≦ + <5%) | + (LOQ≦ + <5%)
Cl.c1ccc2c3n(nc2c1)CCOC3[C@@H]1COCCN1 (stereo partly drawn) [Compound 43, (3S)-3-(3,4-dihydro-1H-[1,4]oxazino[4,3-b]indazol-1-yl)morpholin-4-ium chloride] | + (LOQ≦ + <5%) | + (LOQ≦ + <5%) | + (LOQ≦ + <5%) | + (LOQ≦ + <5%) | + (LOQ≦ + <5%) | + (LOQ≦ + <5%) | + (LOQ≦ + <5%) | + (LOQ≦ + <5%) | + (LOQ≦ + <5%) | + (LOQ≦ + <5%) | + (LOQ≦ + <5%)
Cl.c1ccc2c3n(nc2c1)CCOC31CCNC1 (stereo not drawn) [Compound 44, 3′,4′-dihydrospiro[pyrrolidine-3,1′-[1,4]oxazino[4,3-b]indazol]-1-ium chloride] | + (LOQ≦ + <5%) | ++ (5%≦ ++ <25%) | +++ (25%≦ +++ <50%) | ++ (5%≦ ++ <25%) | ++ (5%≦ ++ <25%) | + (LOQ≦ + <5%) | + (LOQ≦ + <5%) | ++ (5%≦ ++ <25%) | + (LOQ≦ + <5%) | + (LOQ≦ + <5%) | + (LOQ≦ + <5%)
CCN(C)C[C@@H]1OCCn2nc3ccccc3c21.Cl [Compound 49, N—(((S)-3,4-dihydro-1H-[1,4]oxazino[4,3-b]indazol-1-yl)methyl)-N-methylethanaminium chloride] | + (LOQ≦ + <5%) | +++ (25%≦ +++ <50%) | ++ (5%≦ ++ <25%) | ++ (5%≦ ++ <25%) | ++ (5%≦ ++ <25%) | + (LOQ≦ + <5%) | + (LOQ≦ + <5%) | + (LOQ≦ + <5%) | ++ (5%≦ ++ <25%) | + (LOQ≦ + <5%) | + (LOQ≦ + <5%)
CCN(C)C[C@H]1OCCn2nc3ccccc3c21.Cl [Compound 50, N—(((R)-3,4-dihydro-1H-[1,4]oxazino[4,3-b]indazol-1-yl)methyl)-N-methylethanaminium chloride] | ++ (5%≦ ++ <25%) | + (LOQ≦ + <5%) | +++ (25%≦ +++ <50%) | + (LOQ≦ + <5%) | ++++ (50%≦ ++++) | ++ (5%≦ ++ <25%) | + (LOQ≦ + <5%) | + (LOQ≦ + <5%) | + (LOQ≦ + <5%) | + (LOQ≦ + <5%) | + (LOQ≦ + <5%)
CNCC1OCCCn2nc3ccccc3c21.Cl (stereo not drawn) [Compound 51, 1-(4,5-dihydro-1H,3H-[1,4]oxazepino[4,3-b]indazol-1-yl)-N-methylmethanaminium chloride] | ++ (5%≦ ++ <25%) | + (LOQ≦ + <5%) | ++ (5%≦ ++ <25%) | + (LOQ≦ + <5%) | +++ (25%≦ +++ <50%) | + (LOQ≦ + <5%) | + (LOQ≦ + <5%) | + (LOQ≦ + <5%) | + (LOQ≦ + <5%) | + (LOQ≦ + <5%) | + (LOQ≦ + <5%)
CN(C)CC1OCCCn2nc3ccccc3c21.Cl (stereo not drawn) [Compound 52, 1-(4,5-dihydro-1H,3H-[1,4]oxazepino[4,3-b]indazol-1-yl)-N,N-dimethylmethanaminium chloride] | + (LOQ≦ + <5%) | + (LOQ≦ + <5%) | ++ (5%≦ ++ <25%) | + (LOQ≦ + <5%) | ++ (5%≦ ++ <25%) | + (LOQ≦ + <5%) | + (LOQ≦ + <5%) | + (LOQ≦ + <5%) | + (LOQ≦ + <5%) | ++ (5%≦ ++ <25%) | + (LOQ≦ + <5%)
CCN(C)CC1OCCCn2nc3ccccc3c21.Cl (stereo not drawn) [Compound 53, N-((4,5-dihydro-1H,3H-[1,4]oxazepino[4,3-b]indazol-1-yl)methyl)-N-methylethanaminium chloride] | + (LOQ≦ + <5%) | + (LOQ≦ + <5%) | ++ (5%≦ ++ <25%) | + (LOQ≦ + <5%) | ++ (5%≦ ++ <25%) | + (LOQ≦ + <5%) | + (LOQ≦ + <5%) | + (LOQ≦ + <5%) | ++ (5%≦ ++ <25%) | ++ (5%≦ ++ <25%) | + (LOQ≦ + <5%)
CC(C)N(C)CC1OCCCn2nc3ccccc3c21.Cl (stereo not drawn) [Compound 54, N-((4,5-dihydro-1H,3H-[1,4]oxazepino[4,3-b]indazol-1-yl)methyl)-N-methylpropan-2-aminium chloride] | + (LOQ≦ + <5%) | + (LOQ≦ + <5%) | ++ (5%≦ ++ <25%) | + (LOQ≦ + <5%) | + (LOQ≦ + <5%) | + (LOQ≦ + <5%) | + (LOQ≦ + <5%) | + (LOQ≦ + <5%) | + (LOQ≦ + <5%) | + (LOQ≦ + <5%) | + (LOQ≦ + <5%)
CN(CC1OCCCn2nc3ccccc3c21)C1CCC1.Cl (stereo not drawn) [Compound 55, N-((4,5-dihydro-1H,3H-[1,4]oxazepino[4,3-b]indazol-1-yl)methyl)-N-methylcyclobutanaminium chloride] | + (LOQ≦ + <5%) | + (LOQ≦ + <5%) | ++ (5%≦ ++ <25%) | + (LOQ≦ + <5%) | + (LOQ≦ + <5%) | + (LOQ≦ + <5%) | + (LOQ≦ + <5%) | + (LOQ≦ + <5%) | + (LOQ≦ + <5%) | +++ (25%≦ +++ <50%) | + (LOQ≦ + <5%)
Cl.NCC1OCCCn2nc3ccccc3c21 (stereo not drawn) [Compound 56, (4,5-dihydro-1H,3H-[1,4]oxazepino[4,3-b]indazol-1-yl)methanaminium chloride] | + (LOQ≦ + <5%) | + (LOQ≦ + <5%) | + (LOQ≦ + <5%) | + (LOQ≦ + <5%) | + (LOQ≦ + <5%) | + (LOQ≦ + <5%) | + (LOQ≦ + <5%) | + (LOQ≦ + <5%) | + (LOQ≦ + <5%) | + (LOQ≦ + <5%) | + (LOQ≦ + <5%)
